Values quoted from earlier work as cited in PMC5579141.

Test: not told

| Compound | log partition benzene / water [log10] | log partition dibutyl ether / water [log10] | log partition dichloromethane / water [log10] | log partition heptane / water [log10] | log partition hexanol / water [log10] | log partition nitrobenzene / water [log10] | log partition nonanol / water [log10] | log partition octane / water [log10] | log partition tetrachloromethane / water [log10] | log partition toluene / water [log10] | log partition trichloromethane / water [log10] | also measured |
| --- | --- | --- | --- | --- | --- | --- | --- | --- | --- | --- | --- | --- |
| CC(=O)CC(=O)C(F)(F)F | 0.15 | 0.08 | 0.40 | −0.57 | 0.62 | 0.30 | 0.59 | −0.62 | 0.02 | 0.13 | 0.33 | log partition dodecane / water: −0.76 log10; log partition ethylbenzene / water: −0.18 log10; log partition hexane / water: −0.51 log10; log partition pentanol / water: 0.52 log10 |
| CC(=O)CC(=O)c1ccccc1 | 3.05 | 2.36 | 3.48 | 2.03 | 2.48 | 3.19 | 2.43 | 2.00 | 2.77 | 2.91 | 3.50 | log partition 1,2-dichloroethane / water: 3.23 log10; log partition bromobenzene / water: 3.36 log10; log partition chlorobenzene / water: 3.13 log10; log partition cyclohexane / water: 2.11 log10; log partition decane / water: 2.00 log10; log partition decanol / water: 2.38 log10; log partition m-xylene / water: 2.81 log10; log partition nonane / water: 1.97 log10; log partition octanol / water: 2.52 log10 |
